Measured values as given in US10669240B2, “5-substituted indazole-3-carboxamides and preparation and use thereof” (Samumed, LLC, priority 2014, dated 2020).

Tests used:
[1] = test system: Wnt activity (Wnt-responsive SP5 promoter luciferase reporter in SW480 cells); test: Wnt activity reporter assay: SW480 cells with SP5 promoter-driven firefly luciferase; type: cell-based; conditions: Homo sapiens, 24 h after compound addition, read-out: Wnt inhibition
From the text: The above synthesized compounds were screened using the assay procedure for Wnt activity described below.
Reporter cell lines were generated by stably transducing cells of cancer cell lines (e.g., colon cancer) with a lentiviral construct that include a Wnt-responsive promoter driving expression of the firefly luciferase gene.
Lentiviral constructs were made in which the SP5 promoter, a promoter having eight TCF/LEF binding sites derived from the SP5 promoter, was linked upstream of the firefly luciferase gene. The lentiviral constructs included a hygromycin resistance gene as a selectable marker. The SP5 promoter construct was used to transduce SW480 cells, a colon cancer cell line having a mutated APC gene that generates a truncated APC protein, leading to de-regulated accumulation of β-catenin.
Cultured SW480 cells bearing a reporter construct were distributed at approximately 10,000 cells per well into 384 well multiwell plates. Compounds were then added to the wells in half-log dilutions using a three micromolar top concentration. A series of control wells for each cell type received only buffer and compound solvent. Twenty-four hours after the addition of compound, reporter activity for luciferases was assayed, for example, by addition of the BrightGlo luminescence reagent (Promega) and the Victor3 plate reader (Perkin Elmer). Readings were normalized to DMSO only treated cells, and normalized activities were then used for the IC50 calculations.

DYRK1A = DYRK1A (Homo sapiens (Human), UniProt Q13627); test: DYRK1A activity Tau assay: pSer396 Tau in SH-SY5Y cells by ELISA / western blot; type: cell-based; conditions: overnight (16-18 h) exposure

Compound	IC50 [1]	EC50 (DYRK1A)
CN1CCC(NC(=O)c2n[nH]c3ccc(-c4cc(F)cc(F)c4)cc23)CC1 [Compound 21, 5-(3,5-Difluorophenyl)-N-(1-methylpiperidin-4-yl)-1H-indazole-3-carboxamide]	1310 nM	744 nM
CN1CCC(NC(=O)c2n[nH]c3ccc(-c4cccnc4)cc23)CC1 [Compound 1, N-(1-Methylpiperidin-4-yl)-5-(pyridin-3-yl)-1H-indazole-3-carboxamide]	1300 nM	65 nM
CC(C)OCCCNC(=O)c1n[nH]c2ccc(-c3cccc(F)c3F)cc12 [Compound 1264, 5-(2,3-Difluorophenyl)-N-(3-isopropoxypropyl)-1H-indazole-3-carboxamide]	2100 nM	263 nM
O=C(NCCN1CCCCC1)c1n[nH]c2ccc(-c3cccnc3)cc12 [Compound 1265, N-(2-(Piperidin-1-yl)ethyl)-5-(pyridin-3-yl)-1H-indazole-3-carboxamide]	1200 nM	17 nM
CN1CCC2(CC1)CC(NC(=O)c1n[nH]c3ccc(-c4cccc(F)c4F)cc13)C2 [Compound 1278, 5-(2,3-Difluorophenyl)-N-(7-methyl-7-azaspiro[3.5]nonan-2-yl)-1H-indazole-3-carboxamide]	5500 nM	14 nM
O=C(Nc1ccc(CN2CCCC2)cc1)c1n[nH]c2ccc(-c3cncnc3)cc12 [Compound 1328, 5-(Pyrimidin-5-yl)-N-(4-(pyrrolidin-1-ylmethyl)phenyl)-1H-indazole-3-carboxamide]	3700 nM	4 nM
CN1CCC2(CC1)CC(NC(=O)c1n[nH]c3ccc(-c4cncc(Cl)c4)cc13)C2 [Compound 1276, 5-(5-Chloropyridin-3-yl)-N-(7-methyl-7-azaspiro[3.5]nonan-2-yl)-1H-indazole-3-carboxamide]	5200 nM	7 nM
CN1CCC(NC(=O)c2n[nH]c3ccc(-c4cc(CN5CCCCC5)cc(F)c4F)cc23)CC1 [Compound 272, 5-(2,3-Difluoro-5-(piperidin-1-ylmethyl)phenyl)-N-(1-methylpiperidin-4-yl)-1H-indazole-3-carboxamide]	1700 nM	15 nM
CN1CCC(NC(=O)c2n[nH]c3ccc(-c4cncc(CN5CCC5)c4)cc23)CC1 [Compound 8, 5-(5-(Azetidin-1-ylmethyl)pyridin-3-yl)-N-(1-methylpiperidin-4-yl)-1H-indazole-3-carboxamide]	6290 nM	53 nM
CN1CCC(NC(=O)c2n[nH]c3ccc(-c4cnccc4C(F)(F)F)cc23)CC1 [Compound 1340, N-(1-Methylpiperidin-4-yl)-5-(4-(trifluoromethyl)pyridin-3-yl)-1H-indazole-3-carboxamide]	1800 nM	2500 nM
O=C(NC1CC1)c1n[nH]c2ccc(-c3cncc(CN4CCCCC4)c3)cc12 [Compound 9, N-Cyclopropyl-5-(5-(piperidin-1-ylmethyl)pyridin-3-yl)-1H-indazole-3-carboxamide]	2910 nM	2 nM
CC(C)CN1CC(NC(=O)c2n[nH]c3ccc(-c4cncc(C(F)F)c4)cc23)C1 [Compound 1274, 5-(5-(Difluoromethyl)pyridin-3-yl)-N-(1-isobutylazetidin-3-yl)-1H-indazole-3-carboxamide]	1200 nM	20 nM
CN(C)CCNC(=O)c1n[nH]c2ccc(-c3cccnc3)cc12 [Compound 1259, N-(2-(Dimethylamino)ethyl)-5-(pyridin-3-yl)-1H-indazole-3-carboxamide]	1800 nM	20 nM
O=C(Nc1ccccn1)c1n[nH]c2ccc(-c3cncc(CN4CCCCC4)c3)cc12 [Compound 56, 5-(5-(Piperidin-1-ylmethyl)pyridin-3-yl)-N-(pyridin-2-yl)-1H-indazole-3-carboxamide]	1100 nM	3 nM
O=C(NC1CCN(CCF)CC1)c1n[nH]c2ccc(-c3cncc4ccccc34)cc12 [Compound 1297, N-(1-(2-Fluoroethyl)piperidin-4-yl)-5-(isoquinolin-4-yl)-1H-indazole-3-carboxamide]	2200 nM	30 nM
O=C(NC1CCCCC1)c1n[nH]c2ccc(-c3cccnc3)cc12 [Compound 4, N-Cyclohexyl-5-(pyridin-3-yl)-1H-indazole-3-carboxamide]	4460 nM	35 nM
O=C(NC1CCN(C2COC2)CC1)c1n[nH]c2ccc(-c3cccc(F)c3F)cc12 [Compound 1164, 5-(2,3-Difluorophenyl)-N-(1-(oxetan-3-yl)piperidin-4-yl)-1H-indazole-3-carboxamide]	1400 nM	49 nM
Cc1ccc(-c2ccc3[nH]nc(C(=O)NCCCOC(C)C)c3c2)cn1 [Compound 1262, N-(3-Isopropoxypropyl)-5-(6-methylpyridin-3-yl)-1H-indazole-3-carboxamide]	1800 nM	60 nM
O=C(NC1CC1)c1n[nH]c2ccc(-c3cccnc3)cc12 [Compound 6, N-Cyclopropyl-5-(pyridin-3-yl)-1H-indazole-3-carboxamide]	5530 nM	22 nM
O=C(NCCN1CCOCC1)c1n[nH]c2ccc(-c3cccnc3)cc12 [Compound 1267, N-(2-Morpholinoethyl)-5-(pyridin-3-yl)-1H-indazole-3-carboxamide]	1500 nM	5 nM
O=C(NC1(c2ccccc2)CC1)c1n[nH]c2ccc(-c3cncc(CN4CCC4)c3)cc12 [Compound 33, 5-(5-(Azetidin-1-ylmethyl)pyridin-3-yl)-N-(1-phenylcyclopropyl)-1H-indazole-3-carboxamide]	6700 nM	63 nM
O=C(NCc1cc(F)cc(F)c1)c1n[nH]c2ccc(-c3cncc(CN4CCCCC4)c3)cc12 [Compound 28, N-(3,5-Difluorobenzyl)-5-(5-(piperidin-1-ylmethyl)pyridin-3-yl)-1H-indazole-3-carboxamide]	3100 nM	2 nM
O=C(NC1CCN(CCF)CC1)c1n[nH]c2ccc(-c3cccc(F)c3F)cc12 [Compound 1160, 5-(2,3-Difluorophenyl)-N-(1-(2-fluoroethyl)piperidin-4-yl)-1H-indazole-3-carboxamide]	1100 nM	40 nM
CN(C)[C@H]1CC[C@H](NC(=O)c2n[nH]c3ccc(-c4cccnc4)cc23)CC1 [Compound 1288, N-((1r,4r)-4-(Dimethylamino)cyclohexyl)-5-(pyridin-3-yl)-1H-indazole-3-carboxamide]	1370 nM	1 nM
O=C(Nc1ccc(CN2CCCC2)cc1)c1n[nH]c2ccc(-c3cccc(F)c3F)cc12 [Compound 1327, 5-(2,3-Difluorophenyl)-N-(4-(pyrrolidin-1-ylmethyl)phenyl)-1H-indazole-3-carboxamide]	1500 nM	31 nM
CC(C)(F)CN1CCC(NC(=O)c2n[nH]c3ccc(-c4cccnc4)cc23)CC1 [Compound 1309, N-(1-(2-Fluoro-2-methylpropyl)piperidin-4-yl)-5-(pyridin-3-yl)-1H-indazole-3-carboxamide]	2260 nM	7 nM
CC(C)(C)CN1CCC(NC(=O)c2n[nH]c3cc(F)c(-c4cccnc4)cc23)CC1 [Compound 1342, 6-Fluoro-N-(1-neopentylpiperidin-4-yl)-5-(pyridin-3-yl)-1H-indazole-3-carboxamide]	1400 nM	13 nM
